Assay results reported in patent US10640450B1, “Hydroxytyrosol dihydrocaffeate having antioxidant activity and a method for preparing the same” (SHAANXI UNIVERSITY OF SCIENCE AND TECHNOLOGY, priority 2019, dated 2020).

Test: DPPH radical scavenging activity assay
Type: biochemical
Conditions: for DPPH Clearance rate: 30 min dark, room temperature, 517 nm, n = 3
Text: 2,2-Diphenyl-1-picryl hydrazyl (DPPH) is an organic compound composed of a stable organic radical. In the DPPH molecule, due to the presence of multiple electron-withdrawing —NO2 and large π bonds of the benzene ring, nitrogen free radical is stabilized. Its methanol solution is purple and has a maximum absorption peak at 517 nm. After the addition of an antioxidant, DPPH captures an electron to be paired with the free electron, and the purple fades and turns into a yellow substance. The absorption at 517 nm disappears, and the degree of fading is quantitatively related to the number of electrons it captures. Based on this principle, a spectrophotometer is used to detect the change of the absorbance of the DPPH radical and the sample solution, and the ability of the sample to provide hydrogen atoms and scavenge free radicals can be measured.
(a) Preparation of DPPH solution: measuring exact amount of 2,2-diphenyl-1-picryl hydrazyl (DPPH) and dissolving in toluene to prepare a 0.2 mmoL/L DPPH solution, stored at 0° C. in dark.
(b) Preparation of test solution: Vc (vitamin C, positive control), hydroxytyrosol dihydrocaffeate (sample), hydroxytyrosol (control) and dihydrocaffeic acid (control). The sample solution was subjected to gradient dilution with toluene, and three sets of controls were separately dissolved in a test tube with a certain amount of toluene to prepare the same concentration gradient as the sample.
Sample liquid absorbance measurement: Taking 2 mL of test solution (Table 1: Vc, A, B, C), adding 2 mL of DPPH solution with concentration of […], mixing and reacting in the dark at room temperature for 30 min, adjusting to zero with toluene, and measuring at 517 nm. The absorbance A, was simultaneously measured for the absorbance of 2 mL of toluene mixed with 2 mL of the solution and the absorbance A0 of 2 mL of DPPH solution mixed with 2 mL of toluene (The experimental results are shown in Table 2).
Clearance rate (%)=[1−(Ai−Aj)/A0]*100% Clearance calculation: […]

SMILES | DPPH Clearance rate (1.76 ppm in toluene) [%] | DPPH Clearance rate (8.80 ppm in toluene) [%] | DPPH Clearance rate (21.12 ppm in toluene) [%] | DPPH Clearance rate (42.24 ppm in toluene) [%] | DPPH Clearance rate (79.20 ppm in toluene) [%] | DPPH Clearance rate (112.64 ppm in toluene) [%] | DPPH Clearance rate (281.60 ppm in toluene) [%] | DPPH Clearance rate (492.80 ppm in toluene) [%] | DPPH Clearance rate (792.00 ppm in toluene) [%] | DPPH Clearance rate (915.20 ppm in toluene) [%] | antioxidant activity (in words) | scavenging ability to DPPH radical compared with controls (compared with hydroxytyrosol (B) and dihydrocaffeic acid (C) alone) | highest scavenging rate of DPPH radical (in the determined concentration range (1.76-915.20 ppm)) [%]
O=C1O[C@H]([C@@H](O)CO)C(O)=C1O [Vc, Vitamin C] | 23.16 | 33.47 | 79.63 | 89.55 | 97.42 | 97.53 | 98.29 | 99.06 | 99.10 | 99.28 | – | – | –
O=C(O)CCc1ccc(O)c(O)c1 [C, Dihydrocaffeic acid] | 6.27 | 7.46 | 13.42 | 19.21 | 32.36 | 37.87 | 53.23 | 59.82 | 69.01 | 70.28 | – | – | –
O=C(CCc1ccc(O)c(O)c1)OCCc1ccc(O)c(O)c1 [A, 3,4-dihydroxyphenethyl 3-(3,4-dihydroxyphenyl)propanoate] | 13.45 | 17.80 | 34.16 | 42.74 | 70.42 | 80.63 | 82.35 | 85.70 | 89.10 | 91.22 | excellent antioxidant activity | much higher than those of hydroxytyrosol (B) control group and dihydrocaffeic acid (C) control groups | 91.22
